Values of other authors in patent publication US20220362254A1, “METHODS FOR REPROGRAMMING CANCER CELLS” (Thomas Jefferson University, priority 2019, published 2022).

System: Y641 and A677 mutants of EZH2
Conditions: cited from earlier work

Cc1cc(C)c(CNC(=O)c2cc(-c3ccc(CN4CCOCC4)cc3)cc3c2cnn3C2CCCC2)c(=O)[nH]1 [EPZ005687]
inhibition of the Y641 and A677 mutants of EZH2: can also inhibit
